Starred links: 1 amine or outer side, 2 acyl side, 3 side chain; linkers in the order of their positions; H or OH if unused. Positions of bridges follow the written chain, without caps; N, C: chain ends. Non-standard residues stand in square brackets, D forms with d. Residues, ends and D or L forms follow the SMILES beside them. Groups on a side chain read outwards from the residue. *: point of attachment. Trp(1-CH2COOH) = N[C@@H](Cc1cn(CC(=O)O)c2ccccc12)C(=O)O; Nle(6-morpholino) = N[C@@H](CCCCN1CCOCC1)C(=O)O; Phe(3-COOH) = N[C@@H](Cc1cccc(C(=O)O)c1)C(=O)O; Trp(7-aza) = N[C@@H](Cc1c[nH]c2ncccc12)C(=O)O; NH(CH2CH2O)8Me = COCCOCCOCCOCCOCCOCCOCCOCCN*; NMePhe(3-Cl) = CN[C@@H](Cc1cccc(Cl)c1)C(=O)O; Piperazinyl(4-CH2COOH) = O=C(O)CN1CCN(*)CC1; 3Pal(6-NH2) = Nc1ccc(C[C@H](N)C(=O)O)cn1; NMeY = CN[C@@H](Cc1ccc(O)cc1)C(=O)O; 4Pal = N[C@@H](Cc1ccncc1)C(=O)O; PEG4 = NCCOCCOCCOCCOCCC(=O)O; Carboxymethyl = O=C(O)C*; CO = O=C([*:1])[*:2]
The molecules below were run against T1, human transferrin receptor (hTfR) (Homo sapiens, UniProt P02786) (assay: Evaluation of molecular interaction between transferrin receptor (hTfR) and peptide using surface plasmon resonance (SPR)). Settings: peptide with linker, surface plasmon resonance; read-out: SPR (KD class for binding to hTfR).
T1 construct: made in house
Type: binding
In short: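 Binding kinetics of peptides to immobilized recombinant human TfR dimer were measured by SPR at 5–100 nM in a single-cycle format, with KD obtained from curve fitting.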

T1 sequence (P02786 89-760 limits assumed): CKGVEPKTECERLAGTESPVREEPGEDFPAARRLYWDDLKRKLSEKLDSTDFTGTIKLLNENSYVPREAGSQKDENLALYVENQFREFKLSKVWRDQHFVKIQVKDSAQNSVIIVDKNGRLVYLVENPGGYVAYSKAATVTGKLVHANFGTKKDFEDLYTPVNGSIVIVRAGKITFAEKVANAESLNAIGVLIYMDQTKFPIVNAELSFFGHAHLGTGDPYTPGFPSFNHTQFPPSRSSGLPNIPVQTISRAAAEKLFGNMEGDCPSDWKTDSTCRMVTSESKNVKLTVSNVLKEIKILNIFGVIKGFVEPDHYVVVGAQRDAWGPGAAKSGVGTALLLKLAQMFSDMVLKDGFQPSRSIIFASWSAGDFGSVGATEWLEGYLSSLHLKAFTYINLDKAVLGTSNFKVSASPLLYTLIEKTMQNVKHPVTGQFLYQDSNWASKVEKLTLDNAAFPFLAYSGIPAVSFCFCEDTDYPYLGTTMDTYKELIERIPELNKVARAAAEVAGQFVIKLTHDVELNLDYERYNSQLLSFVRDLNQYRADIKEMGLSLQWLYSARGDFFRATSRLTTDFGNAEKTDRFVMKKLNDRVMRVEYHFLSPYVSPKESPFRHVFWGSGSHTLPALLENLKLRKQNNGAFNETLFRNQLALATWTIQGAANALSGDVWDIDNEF

| SMILES | Kd |
| --- | --- |
| CC[C@H](C)[C@@H]1NC(=O)[C@H](Cc2ccc(OC)cc2)NC(=O)[C@H](Cc2ccc(N)nc2)NC(=O)[C@H](CC(N)=O)NC(=O)[C@H](Cc2c[nH]c3ncccc23)NC(=O)[C@H](C(C)C)NC(=O)[C@H](Cc2cccc(Cl)c2)N(C)C(=O)[C@H](C(C)C)NC(=O)[C@H](C)NC(=O)CSC[C@@H](C(=O)NCCOCCOCCOCCOCCC(N)=O)NC(=O)[C@H](Cc2ccc(O)cc2)N(C)C(=O)[C@H](Cc2ccncc2)NC(=O)[C@H](CCCCN2CCOCC2)NC(=O)[C@H](CCC(=O)NCCOCCOCCOCCOCCOCCOCCOCCOC)NC(=O)[C@H]([C@@H](C)CC)NC1=O [compound 236] ({CH2CO}-AV[NMePhe(3-Cl)]V[Trp(7-aza)]N[3Pal(6-NH2)]Y(Me)IIE(NH(CH2CH2O)8Me)[Nle(6-morpholino)][4Pal][NMeY]C[PEG4]-NH2; thioether N-15) | 1 to 100 nM |
| CC[C@H](C)[C@@H]1NC(=O)[C@H](Cc2ccc(OCC(=O)O)cc2)NC(=O)[C@H](Cc2ccc(N)nc2)NC(=O)[C@H](CC(N)=O)NC(=O)[C@H](Cc2c[nH]c3ncccc23)NC(=O)[C@H](C(C)C)NC(=O)[C@H](Cc2cccc(Cl)c2)N(C)C(=O)[C@H](C(C)C)NC(=O)[C@H](C)NC(=O)CSC[C@@H](C(=O)NCCOCCOCCOCCOCCC(N)=O)NC(=O)[C@H](Cc2ccc(O)cc2)N(C)C(=O)[C@H](Cc2cccc(C(=O)O)c2)NC(=O)[C@H](CCCNC(=N)N)NC(=O)[C@H](CCC(=O)NCCOCCOCCOCCOCCOCCOCCOCCOC)NC(=O)[C@H]([C@@H](C)CC)NC1=O [compound 239] ({CH2CO}-AV[NMePhe(3-Cl)]V[Trp(7-aza)]N[3Pal(6-NH2)]Y(Carboxymethyl)IIE(NH(CH2CH2O)8Me)R[Phe(3-COOH)][NMeY]C[PEG4]-NH2; thioether N-15) | 1 to 100 nM |

Continued, values first:

| Kd | SMILES |
| --- | --- |
| 1 to 100 nM | CC[C@H](C)[C@@H]1NC(=O)[C@H](Cc2ccc(OC)cc2)NC(=O)[C@H](Cc2ccc(N)nc2)NC(=O)[C@H](CC(N)=O)NC(=O)[C@H](Cc2c[nH]c3ncccc23)NC(=O)[C@H](C(C)C)NC(=O)[C@H](Cc2cccc(Cl)c2)N(C)C(=O)[C@H](C(C)C)NC(=O)[C@H](C)NC(=O)CSC[C@@H](C(=O)NCCOCCOCCOCCOCCC(N)=O)NC(=O)[C@H](Cc2ccc(O)cc2)N(C)C(=O)[C@H](Cc2ccncc2)NC(=O)[C@H](CCCCNC(=O)N2CCN(CC(=O)O)CC2)NC(=O)[C@H](CCC(=O)NCCOCCOCCOCCOCCOCCOCCOCCOC)NC(=O)[C@H]([C@@H](C)CC)NC1=O [compound 237] ({CH2CO}-AV[NMePhe(3-Cl)]V[Trp(7-aza)]N[3Pal(6-NH2)]Y(Me)IIE(NH(CH2CH2O)8Me)K([CO-Piperazinyl(4-CH2COOH)])[4Pal][NMeY]C[PEG4]-NH2; thioether N-15) |
| 1 to 100 nM | CC[C@H](C)[C@@H]1NC(=O)[C@H](Cc2ccc(OCC(=O)O)cc2)NC(=O)[C@H](Cc2ccc(N)nc2)NC(=O)[C@H](CC(N)=O)NC(=O)[C@H](Cc2c[nH]c3ccccc23)NC(=O)[C@H](C(C)C)NC(=O)[C@H](Cc2cccc(Cl)c2)N(C)C(=O)[C@H](C(C)C)NC(=O)[C@H](C)NC(=O)CSC[C@@H](C(=O)NCCOCCOCCOCCOCCC(N)=O)NC(=O)[C@H](Cc2ccc(O)cc2)N(C)C(=O)[C@H](Cc2cccc(C(=O)O)c2)NC(=O)[C@H](CCCNC(=N)N)NC(=O)[C@H](CCC(=O)NCCOCCOCCOCCOCCOCCOCCOCCOC)NC(=O)[C@H]([C@@H](C)CC)NC1=O [compound 238] ({CH2CO}-AV[NMePhe(3-Cl)]VWN[3Pal(6-NH2)]Y(Carboxymethyl)IIE(NH(CH2CH2O)8Me)R[Phe(3-COOH)][NMeY]C[PEG4]-NH2; thioether N-15) |
| 1 to 100 nM | CC[C@H](C)[C@@H]1NC(=O)[C@H](Cc2ccc(OCC(=O)O)cc2)NC(=O)[C@H](Cc2ccc(O)cc2)NC(=O)[C@H](CC(N)=O)NC(=O)[C@H](Cc2cn(CC(=O)O)c3ccccc23)NC(=O)[C@H](C(C)C)NC(=O)[C@H](Cc2cccc(Cl)c2)N(C)C(=O)[C@H](C(C)C)NC(=O)[C@H](C)NC(=O)CSC[C@@H](C(=O)NCCOCCOCCOCCOCCC(N)=O)NC(=O)[C@H](Cc2ccc(O)cc2)N(C)C(=O)[C@H](Cc2cccc(C(=O)O)c2)NC(=O)[C@H](CCCCN2CCOCC2)NC(=O)[C@H](CCCCN2CCOCC2)NC(=O)[C@H]([C@@H](C)CC)NC1=O [compound 240] ({CH2CO}-AV[NMePhe(3-Cl)]V[Trp(1-CH2COOH)]NYY(Carboxymethyl)II[Nle(6-morpholino)][Nle(6-morpholino)][Phe(3-COOH)][NMeY]C[PEG4]-NH2; thioether N-15) |
| 1 to 100 nM | CC[C@H](C)[C@@H]1NC(=O)[C@H](Cc2ccc(O)cc2)NC(=O)[C@H](Cc2ccc(O)cc2)NC(=O)[C@H](CC(N)=O)NC(=O)[C@H](Cc2c[nH]c3ccccc23)N(C)C(=O)[C@H](C(C)C)NC(=O)[C@H](Cc2ccccc2)N(C)C(=O)[C@H](C(C)C)NC(=O)[C@H](C)NC(=O)CSC[C@@H](C(=O)NCC(=O)N[C@H](CCC(=O)O)C(=O)N[C@H](CCC(=O)O)C(=O)N[C@H](CCC(=O)O)C(=O)N[C@H](CO)C(=O)N[C@H](CO)C(=O)N[C@@H](CCCCN=[N+]=[N-])C(N)=O)NC(=O)[C@H](Cc2ccc(O)cc2)N(C)C(=O)[C@H](Cc2ccc(O)cc2)NC(=O)[C@H](CCCNC(=N)N)NC(=O)[C@H](CCCCN)NC(=O)[C@H]([C@@H](C)CC)NC1=O [compound 241] |

— patent publication US20260116920A1, “HUMAN TRANSFERRIN RECEPTOR BINDING PEPTIDE” (PEPTIDREAM INC., priority 2021, published 2026)
